Each structure is given as a SMILES string. Where a name gives a salt, the structure may show the parent alone.

T1 sequence (P50406 whole entry): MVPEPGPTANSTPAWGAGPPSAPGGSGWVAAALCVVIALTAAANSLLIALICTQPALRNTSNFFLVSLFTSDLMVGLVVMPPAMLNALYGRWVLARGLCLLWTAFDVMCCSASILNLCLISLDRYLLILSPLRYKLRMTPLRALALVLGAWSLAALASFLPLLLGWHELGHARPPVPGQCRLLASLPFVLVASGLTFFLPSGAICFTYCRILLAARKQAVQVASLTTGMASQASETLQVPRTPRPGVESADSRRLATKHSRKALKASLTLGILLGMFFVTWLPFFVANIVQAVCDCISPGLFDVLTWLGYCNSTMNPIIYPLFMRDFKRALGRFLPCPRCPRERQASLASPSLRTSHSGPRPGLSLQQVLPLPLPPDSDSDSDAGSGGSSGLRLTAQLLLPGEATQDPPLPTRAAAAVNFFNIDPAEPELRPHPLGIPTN

The first data set has as its target T1, cloned human 5-HT6 receptor (Homo sapiens, UniProt P50406).
T1 construct: host or cells: HeLa cells (G-418 selected); membranes prepared from them
Nature of the data set: 5-HT6 receptor binding assay ([3H]-LSD, SPA). The settings on record: membranes of Hela cells containing cloned human 5-HT6 receptor; [3H]-LSD radioligand; Ki from estimated IC50 by Cheng-Prusoff. The method, then:
Growth of Cells and Membrane Preparation
Hela cells containing the cloned human 5-HT6 receptor were acquired from Dr. David R. Sibley's laboratory in National Institute of Health (see Sibley, D. R., J. Neurochemistr, 66, 47-56, 1996). Cells were grown in high glucose Dulbecco's modified Eagle's medium, supplemented with L-glutamine, 0.5% sodium pyruvate, 0.3% penicillin-streptomycin, 0.025% G-418 and 5% Gibco fetal bovine serum and then were harvested, when confluent, in cold phosphate buffered saline.
Harvested intact cells were washed once in cold phosphate-buffered saline. The cells were pelleted and resuspended in 100 ml of cold 50 mM Tris, 5 mM EDTA and 5 mM EGTA, pH 7.4. Homogenization was with a Vir Tishear generator, 4 cycles for 30 seconds each at setting 50. The homogenized cells were centrifuged at […] for 10 minutes and the supernatant was removed. The pellet was resuspended in 100 ml of the above buffer and rehomogenized for 2 cycles. The rehomogenized cells were then centrifuged at […] for 10 minutes and the supernatant was removed. The combined supernatant (200 ml) was centrifuged at 23,000 RPM (80,000×g) for 1 hour in a Beckman Rotor (42.1 Ti). […]
The radioligand binding assay used [^3H]-lysergic acid diethylamide (LSD). […] The plates were then loaded into counting cassettes and counted in a Wallac MicroBeta Trilux scintillation counter. […]
Turning to `NCCOc1cccc2c1c1cccc3c1n2[C@H](c1ccccc1)CO3` [Example 2, (R)−)-[(1-Phenyl-1,2-dihydro[1,4]oxazino[2,3,4-jk]carbazol-7-yl)oxy]ethanamine and its methanesulfonic acid salt], the Ki was 1.8 nM. Still for that read-out and setting: for `CC(C)NCCOc1cccc2c1c1cccc3c1n2C(c1ccccc1)CO3` (centres unmarked) [Example 5, N-isopropyl-N-{2-[(1-phenyl-1,2-dihydro[1,4]oxazino[2,3,4-jk]carbazol-7-yl)oxy]ethyl}amine and its maleic acid salt] the value was 7.8 nM.

System in a further data set: not given
Assay: not given
Settings: not given
As to `CCN(CC)CCOc1cccc2c1c1cccc3c1n2C(c1ccccc1)CO3` (centres unmarked) (as salt: maleic acid salt) [Example 3, N,N-Diethyl-2-[(1-phenyl-1,2-dihydro[1,4]oxazino[2,3,4-jk]carbazol-7-yl)oxy]-1-ethanamine and its maleic acid salt], the melting point lay within 105 to 107 °C. On the same count and under the same terms, for `NCCOc1cccc2c1c1cccc3c1n2[C@H](c1ccccc1)CO3` (as salt: sulfonic acid salt) [Example 2, (R)−)-[(1-Phenyl-1,2-dihydro[1,4]oxazino[2,3,4-jk]carbazol-7-yl)oxy]ethanamine and its methanesulfonic acid salt] the value was 236 °C. The same measure, in the same setting: then `CCNCCOc1cccc2c1c1cccc3c1n2C(c1ccccc1)CO3.O=C(O)/C=C\C(=O)O` (centres unmarked) [Example 6, N-Ethyl-2-[(1-phenyl-1,2-dihydro[1,4]oxazino[2,3,4-jk]carbazol-7-yl)oxy]-ethanamine and its maleic acid salt], with 105 °C; and `c1ccc(C2COc3cccc4c5c(OCCN6CCNCC6)cccc5n2c34)cc1` (centres unmarked) [Example 13, 1-Phenyl-1,2-dihydro[1,4]oxazino[2,3,4-jk]carbazol-7-yl 2-(1-piperazinyl)ethyl ether], with 72 °C.

On to `CN1CCN(CCOc2cccc3c2c2cccc4c2n3C(c2ccccc2)CO4)CC1` (centres unmarked) [Example 14, 2-(4-Methyl-1-piperazinyl)ethyl 1-phenyl-1,2-dihydro[1,4]oxazino[2,3,4-jk]carbazol-7-yl ether], for which the melting point came out at 57 °C. Still for that read-out and setting: for `CN(C)CCOc1cccc2c1c1cccc3c1n2C(c1ccccc1)CO3` (centres unmarked) [Example 18, N,N-dimethyl-2-[(1-phenyl-1,2-dihydro[1,4]oxazino[2,3,4-jk]carbazol-7-yl)oxy]-1-ethanamine] the value was 117 to 118 °C.

One may read the Ki as a measure of affinity in units of concentration, obtained from inhibition or displacement. The term melting point denotes the temperature of the solid-liquid transition.
